{
  "source": "patent US12180509B2",
  "about": "“Methods for reprograming non-pluripotent cells into pluripotent stem cells” (Beihao Stem Cell and Regenerative Medicine Research …, priority 2015, dated 2024)",
  "key": {"XEN-like cells": {"tested_on": "XEN-like cells", "assay": "Transition of XEN-like colonies to CiPSCs (stages 2 and 3)", "type": "cell-based, mouse", "details": "screen of 88 small molecules in the presence of VC6TFA plus DZNep, stage 2 of 12 days", "description": "MEFs, MNFs or MAFs were plated at 300,000 cells per 100 mm dish, or 50,000 cells per well on a 6-well plate. The next day (day 0), the culture was changed into stage 1 medium supplemented with small-molecule cocktail VC6TFAE (0.5 mM VPA, […] CHIR99021, 10 μM 616452, 5 μM Tranylcypromine, 50 µM FSK, 0.05 μM AM580 and 5 μM EPZ004777). […] The cells were harvested and then re-plated at 100,000 cells per well of a 6-well plate (1:15). During days 12-16, the cells were cultured in stage 1 medium supplemented with a modified small-molecule cocktail VC6TFA (0.5 mM VPA, 10 μM CHIR99021, 10 μM 616452, 5 μM Tranylcypromine, 10 μM FSK, 0.05 μM AM580). On day 16, XEN-like epithelial colonies were formed and the culture was changed into stage 2 medium supplemented with small-molecule cocktail VC6TFAZDS (0.5 mM VPA, 10 μM CHIR99021, 10 μM 616452, 5 μM Tranylcypromine, 10 μM FSK, 0.05 μM AM580, 0.05 μM DZNep, 0.5 μM 5-aza-dC and 5 μM SGC0946). On day 28, the culture was transferred into stage 3 medium. […] During CiPSC induction, the medium and small molecules were changed every 4 days.\nStudies were next conducted to identify small molecules that facilitate the transition of XEN-like colonies to CiPSCs during stages 2 and 3. Small-molecule screenings were performed in the presence of small molecule cocktail VC6TFA plus DZNep (Z) for 12 days with successful enhanced generation of CiPSC colonies. […]"}, "[1]": {"tested_on": "pluripotency-related genes and XEN marker genes", "assay": "Real-time PCR of pluripotency, XEN and MET genes during chemical reprogramming", "type": "cell-based, mouse", "details": "stage 2, XEN-like cells", "description": "Total RNA from an entire well of cultured cells was isolated using the RNeasy Plus MiniKit (QIAGEN). For a single colony, RNA was isolated using the RNeasy Micro Kit (QIAGEN). RNA was converted to cDNA using TransScript First-Strand cDNA Synthesis SuperMix (TransGen Biotech). PCR was carried out using Power SYBRR Green PCR Master Mix (Applied Biosystems) and performed on an ABI Prism 7300 Sequence Detection System. The data were analyzed using the delta-delta Ct method."}},
  "data": [
    {"smiles": "Nc1ncn([C@H]2C[C@H](O)[C@@H](CO)O2)c(=O)n1", "note": "[5-aza-dC]", "values": [
      {"measurement": "CiPSC colony formation in stage 3", "setting": "XEN-like cells", "value": "CiPSC colonies formed in stage 3 only when the cell culture medium was supplemented with 5-aza-dC"},
      {"measurement": "expression of pluripotency genes (Oct4, Dppa family genes)", "setting": "[1]", "value": "promote the expression of pluripotency genes"}
    ]}
  ]
}
